Results reported in patent US9969775B2, “CGRP antagonist peptides” (Ferring B.V., priority 2015, dated 2018).
pIC50: −log10 of the molar value. Numbered stars: 1 amine (or outer) side, 2 acyl side, 3 side chain; on linkers, the order of the positions; unused ones are H or OH. Bridge positions count the residues as written; N and C are the ends. Square brackets hold non-standard residues; d marks the D form. Side chains are listed from the residue outwards. Peptide text beside a SMILES is read from it. * marks the point of attachment. Phe(3-CH2NH2) = O=C([C@H](Cc1cccc(CN[*:3])c1)N[*:1])[*:2]; Phe(3-CONH2) = NC(=O)c1cccc(C[C@H](N)C(=O)O)c1; X16 = CCN(CC)CC[C@H](N[*:1])C(=O)[*:2]; Dab(iPr) = CC(C)NCC[C@H](N)C(=O)O; Benzoyl(4-F) = O=C(c1ccc(F)cc1)*; Oxazole2carbonyl = O=C(c1ncco1)*; 3Pal = N[C@@H](Cc1cccnc1)C(=O)O; Picolinoyl = O=C(c1ccccn1)*; ΔPro = O=C(O)[C@@H]1C=CCN1; Dap = NC[C@H](N)C(=O)O; AEEA = NCCOCCOCC(=O)O

Key:
[1] = biological target: T1, hCGRP receptor (CALCRL:RAMP1) (Homo sapiens, UniProt O60894+Q16602); experiment: CGRP receptor antagonist activity measured by cAMP assay (HTRF); type: cell-based; conditions: agonist human α-CGRP; for Emax: % MPE: percent of the maximal possible effect, read-out: hCGRP-R Efficacy Antag (%) Ave; for pIC50: GeneBLAzer CALCRL:RAMP1-CRE-bla Freestyle 293F cells, 30 minutes, read-out: hCGRP-R IC50 Ave
T1 construct: host or cells: GeneBLAzer CALCRL:RAMP1-CRE-bla Freestyle 293F
Description: Example 6: CGRP Receptor Antagonist Activity Measured by cAMP Assay
CGRP receptor agonists increase intracellular cyclic adenosine mono-phosphate (cAMP). CGRP receptor antagonists can reduce the agonist effect. Antagonist activity was assessed by measurement of cyclic adenosine mono-phosphate (cAMP) using cell line stably expressing the hCGRP receptor (GeneBLAzer® CALCRL:RAMP1-CRE-bla Freestyle™ 293F, Invitrogen). hCGRP receptor expressing cells were maintained in DMEM high-glucose with GlutaMAX™ containing 10% (v/v) FBS, 0.1 mM NEAA, 25 mM HEPES, 5 ug/ml Blasticidin, 100 ug/ml Hygromycin, and 400 ug/ml Geneticin at 37° C. under 5% CO2 in a humidified atmosphere. For cAMP measurement, cells were washed once with 5 ml 1×PBS, cell maintenance media was replaced with compound buffer ((CB): DMEM containing 0.1% BSA and 0.5 mM IBMX), and flasks were incubated for 1 hour at 37° C. under 5% CO2 in a humidified atmosphere. Cells were removed from culture flasks using non-enzymatic cell dissociation buffer and harvested in CB. The reaction was performed in 384 well white small volume plates (Greiner) at a density of 10,000 cells/well. Cells were exposed to varying concentrations of antagonist compounds for 30 minutes in the presence of a fixed concentration of agonist (human α-CGRP). cAMP levels were measured using an HTRF (homogeneous time resolved fluorescence)-based competitive cAMP immunoassay (cAMP Dynamic 2 Kit, Cisbio), according to the manufacturer's instructions. […] Reported parameters include antagonist potency IC50 (the concentration causing half-maximal inhibition of the agonist response for antagonist compounds) and efficacy (% MPE: percent of the maximal possible effect).

[2] = biological target: T2, hAM2 receptor (CALCRL:RAMP3) (Homo sapiens, UniProt O60896+Q16602); experiment: AM2 receptor antagonist activity measured by cAMP assay (HTRF); type: cell-based; conditions: for Emax: % MPE: percent of the maximal possible effect, read-out: hAM2-R Efficacy Antag (%) Ave; for Emax / pIC50: agonist human adrenomedullin; for pIC50: GeneBLAzer CALCRL:RAMP3-CRE-bla Freestyle 293F cells, read-out: hAM2-R IC50 Ave; for selectivity ratio CGRP/AM2: selectivity ratio for hCGRP over hAM2, calculated from the IC50 values
T2 construct: expressed in transfected cells; host or cells: GeneBLAzer CALCRL:RAMP3-CRE-bla Freestyle 293F
T2 sequence (Q16602 23-461): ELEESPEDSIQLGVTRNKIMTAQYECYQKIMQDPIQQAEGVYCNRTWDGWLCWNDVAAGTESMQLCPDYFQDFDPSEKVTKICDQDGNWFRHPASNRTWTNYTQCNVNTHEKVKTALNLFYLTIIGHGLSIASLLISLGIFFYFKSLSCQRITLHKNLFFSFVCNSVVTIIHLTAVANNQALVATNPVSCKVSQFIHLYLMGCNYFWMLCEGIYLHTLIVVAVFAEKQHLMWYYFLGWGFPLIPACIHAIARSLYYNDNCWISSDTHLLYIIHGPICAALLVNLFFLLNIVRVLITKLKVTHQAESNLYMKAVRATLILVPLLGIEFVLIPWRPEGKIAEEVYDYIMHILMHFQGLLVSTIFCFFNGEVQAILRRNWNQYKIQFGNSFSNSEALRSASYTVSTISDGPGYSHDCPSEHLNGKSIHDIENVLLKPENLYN
T2 sequence (O60896 24-148): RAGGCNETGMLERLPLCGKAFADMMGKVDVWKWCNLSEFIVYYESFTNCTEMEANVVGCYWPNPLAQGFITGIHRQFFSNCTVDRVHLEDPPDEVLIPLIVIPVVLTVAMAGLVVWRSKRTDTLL

T1 sequence (Q16602 23-461): as the sequence (Q16602 23-461) above
T1 sequence (O60894 27-148): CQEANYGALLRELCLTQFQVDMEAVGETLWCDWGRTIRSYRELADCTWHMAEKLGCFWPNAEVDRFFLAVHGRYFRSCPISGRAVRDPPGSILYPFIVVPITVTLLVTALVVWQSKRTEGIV

SMILES	Emax [1] [%]	pIC50 [1]	Emax [2] [%]	pIC50 [2]	selectivity ratio CGRP/AM2 [2]
CC(C)[C@@H]1NC(=O)[C@H](CC(=O)O)NC(=O)[C@H](CCCNC(=N)N)NC(=O)[C@@H](NC(=O)[C@H](Cc2ccc(O)cc2)NC(=O)[C@H](NC(=O)c2ccccn2)C(C)C)CSSC[C@@H](C(=O)N[C@@H](Cc2cccnc2)C(N)=O)NC(=O)[C@H](Cc2cccnc2)NC(=O)[C@@H]2CCCN2C(=O)CNC1=O [Compound 3, Picolinoyl-D-Val-Tyr-c(Cys-Arg-Asp-Val-Gly-Pro-3Pal-Cys)-3Pal-NH2] (Picolinoyl-[dV]YCRDVGP[3Pal]C[3Pal]-NH2; disulfide 3-10)	100	9.92	101	7.46	285
CC(C)[C@@H]1NC(=O)[C@H](CC(=O)O)NC(=O)[C@H](CCCNC(=N)N)NC(=O)[C@@H](NC(=O)[C@H](Cc2ccc(O)cc2)NC(=O)[C@H](NC(=O)c2ccc(F)cc2)C(C)C)CSSC[C@@H](C(=O)N[C@@H](Cc2cccnc2)C(N)=O)NC(=O)[C@H](Cc2ccccc2)NC(=O)[C@@H]2C=CCN2C(=O)CNC1=O [Compound 4, Bz(4-F)-D-Val-Tyr-c(Cys-Arg-Asp-Val-Gly-Dhp-Phe-Cys)-3Pal-NH2] ({Benzoyl(4-F)}-[dV]YCRDVG[ΔPro]FC[3Pal]-NH2; disulfide 3-10)	100	9.77	113	7.54	172
CCN(CC)CC[C@@H]1NC(=O)[C@@H](NC(=O)[C@H](Cc2ccc(O)cc2)NC(=O)[C@H](NC(=O)c2ccccn2)C(C)C)CSSC[C@@H](C(=O)N[C@@H](Cc2cccnc2)C(N)=O)NC(=O)[C@H](Cc2ccccc2)NC(=O)[C@@H]2CCCN2C(=O)CNC(=O)[C@H](C(C)C)NC(=O)[C@H](CC(=O)O)NC1=O [Compound 8, Picolinoyl-D-Val-Tyr-c(Cys-Dab(Et2)-Asp-Val-Gly-Pro-Phe-Cys)-3Pal-NH2] (Picolinoyl-[dV]YC[X16]DVGPFC[3Pal]-NH2; disulfide 3-10)	100	10.05	100	7.52	347
CC(C)NCC[C@@H]1NC(=O)[C@@H](NC(=O)[C@H](Cc2ccc(O)cc2)NC(=O)[C@H](NC(=O)c2ccccn2)C(C)C)CSSC[C@@H](C(=O)N[C@@H](Cc2cccnc2)C(N)=O)NC(=O)[C@H](Cc2ccccc2)NC(=O)[C@@H]2CCCN2C(=O)CNC(=O)[C@H](C(C)C)NC(=O)[C@H](CC(=O)O)NC1=O [Compound 9, Picolinoyl-D-Val-Tyr-c(Cys-Dab(iPr)-Asp-Val-Gly-Pro-Phe-Cys)-3Pal-NH2] (Picolinoyl-[dV]YC[Dab(iPr)]DVGPFC[3Pal]-NH2; disulfide 3-10)	100	9.82	106	7.29	351
CC(C)[C@@H]1NC(=O)[C@H](CC(=O)O)NC(=O)[C@H](CNC(=O)COCCOCCNC(=O)COCCOCCN)NC(=O)[C@@H](NC(=O)[C@H](Cc2ccc(O)cc2)NC(=O)[C@H](NC(=O)c2ccccn2)C(C)C)CSSC[C@@H](C(=O)N[C@@H](Cc2cccnc2)C(N)=O)NC(=O)[C@H](Cc2ccccc2)NC(=O)[C@@H]2CCCN2C(=O)CNC1=O [Compound 10] (Picolinoyl-[dV]YC[Dap]([AEEA-AEEA])DVGPFC[3Pal]-NH2; disulfide 3-10)	100		107		
CC(C)[C@@H]1NC(=O)[C@H](CC(=O)O)NC(=O)[C@H](CCCNC(=N)N)NC(=O)[C@@H](NC(=O)[C@H](Cc2ccc(O)cc2)NC(=O)[C@H](NC(=O)c2ncco2)C(C)C)CSSC[C@@H](C(=O)N[C@@H](Cc2cccnc2)C(N)=O)NC(=O)[C@H](Cc2cccnc2)NC(=O)[C@@H]2CCCN2C(=O)CNC1=O [Compound 11, Oxazole-2-carbonyl-D-Val-Tyr-c(Cys-Arg-Asp-Val-Gly-Pro-3Pal-Cys)-3Pal-NH2] (Oxazole2carbonyl-[dV]YCRDVGP[3Pal]C[3Pal]-NH2; disulfide 3-10)	100	9.89	108	7.60	198

More lines, now with the values ahead:

Emax [1] [%]	pIC50 [1]	Emax [2] [%]	pIC50 [2]	selectivity ratio CGRP/AM2 [2]	SMILES
100	9.85	101	7.28	362	CC(C)[C@@H]1NC(=O)[C@H](CC(=O)O)NC(=O)[C@H](CCCNC(=N)N)NC(=O)[C@@H](NC(=O)[C@H](Cc2ccc(O)cc2)NC(=O)[C@H](NC(=O)c2ccc(F)cc2)C(C)C)CSSC[C@@H](C(=O)N[C@@H](Cc2cccnc2)C(N)=O)NC(=O)[C@H](Cc2ccccc2)NC(=O)[C@@H]2CCCN2C(=O)CNC1=O [Compound 1] ({Benzoyl(4-F)}-[dV]YCRDVGPFC[3Pal]-NH2; disulfide 3-10)
100	10.10	100	7.35	555	CC(C)[C@@H]1NC(=O)[C@H](CC(=O)O)NC(=O)[C@H](CCCNC(=N)N)NC(=O)[C@@H](NC(=O)[C@H](Cc2ccc(O)cc2)NC(=O)[C@H](NC(=O)c2ccc(F)cc2)C(C)C)CSSC[C@@H](C(=O)N[C@@H](Cc2cccnc2)C(N)=O)NC(=O)[C@H](Cc2cccnc2)NC(=O)[C@@H]2CCCN2C(=O)CNC1=O [Compound 2, Bz(4-F)-D-Val-Tyr-c(Cys-Arg-Asp-Val-Gly-Pro-3Pal-Cys)-3Pal-NH2] ({Benzoyl(4-F)}-[dV]YCRDVGP[3Pal]C[3Pal]-NH2; disulfide 3-10)
100	9.89	99	7.59	192	CC(C)[C@@H]1NC(=O)[C@H](CC(=O)O)NC(=O)[C@H](CCCNC(=N)N)NC(=O)[C@@H](NC(=O)[C@H](Cc2ccc(O)cc2)NC(=O)[C@H](NC(=O)c2ccc(F)cc2)C(C)C)CSSC[C@@H](C(=O)N[C@@H](Cc2cccnc2)C(N)=O)NC(=O)[C@H](Cc2cccc(CN)c2)NC(=O)[C@@H]2CCCN2C(=O)CNC1=O [Compound 5, Bz(4-F)-D-Val-Tyr-c(Cys-Arg-Asp-Val-Gly-Pro-Phe(3-CH2NH2)-Cys)-3Pal-NH2] ({Benzoyl(4-F)}-[dV]YCRDVGP[Phe(3-CH2NH2)]C[3Pal]-NH2; disulfide 3-10)
100	9.77	113	7.00	612	CC(C)[C@@H]1NC(=O)[C@H](CC(=O)O)NC(=O)[C@H](CN)NC(=O)[C@@H](NC(=O)[C@H](Cc2ccc(O)cc2)NC(=O)[C@H](NC(=O)c2ccc(F)cc2)C(C)C)CSSC[C@@H](C(=O)N[C@@H](Cc2cccnc2)C(N)=O)NC(=O)[C@H](Cc2cccc(C(N)=O)c2)NC(=O)[C@@H]2CCCN2C(=O)CNC1=O [Compound 6, Bz(4-F)-D-Val-Tyr-c(Cys-Dpr-Asp-Val-Gly-Pro-Phe(3-Cbm)-Cys)-3Pal-NH2] ({Benzoyl(4-F)}-[dV]YC[Dap]DVGP[Phe(3-CONH2)]C[3Pal]-NH2; disulfide 3-10)
100	9.89	100	7.37	334	CC(C)[C@@H]1NC(=O)[C@H](CC(=O)O)NC(=O)[C@H](CN)NC(=O)[C@@H](NC(=O)[C@H](Cc2ccc(O)cc2)NC(=O)[C@H](NC(=O)c2ccc(F)cc2)C(C)C)CSSC[C@@H](C(=O)N[C@@H](Cc2cccnc2)C(N)=O)NC(=O)[C@H](Cc2ccc(O)cc2)NC(=O)[C@@H]2CCCN2C(=O)CNC1=O [Compound 7, Bz(4-F)-D-Val-Tyr-c(Cys-Dpr-Asp-Val-Gly-Pro-Tyr-Cys)-3Pal-NH2] ({Benzoyl(4-F)}-[dV]YC[Dap]DVGPYC[3Pal]-NH2; disulfide 3-10)
